# Source: US9389237B2, “Methods for inhibiting the development of Huntington's disease” (priority 2003, dated 2016)
# Where “and” joins values, the source holds several entries; their conditions need not be identical. Identical values can stand only once. Entries after “also recorded” stand apart in the source; their conditions may differ.
# Key:
# [1] = test system: HD transgenic mice (HDexon 1 + 159-161 CAG repeat units); assay: Body weight of hormone treated HD transgenic mice; assay type: in vivo; details: for Last wt Week 12 / Peak wt Weeks 8/9 / % change in weight / Change in Grams / % change: single animals; for Average % change: group average weight loss; for % change in weight / Change in Grams / % change: peak to week 12
# Source text: 30 HD mice were obtained from the Jackson Laboratory, Bar Harbor, Me. The group consists of a 15 hemizygous female strain #2810 and 15 hemizygous males strain #2810 (containing the transgene HDexon 1+159-161 CAG repeat units). These mice were grouped as follows: • All mice received ear clips as identification, noting hair color. • 1-15 were males and 16-29 were females mouse #30 arrived dead. • Male mice: 1-4 were control animals receiving no treatment, 5,6,7,11 were grouped as E1 8, 9, 10 and 12 were grouped as E2. […] 28 and 29 were grouped as T2, receiving 100 ug/ml testosterone.
# Body Weight: All animals were weighed on a scale weekly throughout the study. All weights were recorded.
# [2] = test system: HD transgenic mice (HDexon 1 + 159-161 CAG repeat units); assay: Brain weight at week 12 of treated HD transgenic mice; assay type: in vivo; details: for Brain weight at week 12: single animals
# Source text: 30 HD mice were obtained from the Jackson Laboratory, Bar Harbor, Me. The group consists of a 15 hemizygous female strain #2810 and 15 hemizygous males strain #2810 (containing the transgene HDexon 1+159-161 CAG repeat units). These mice were grouped as follows: • All mice received ear clips as identification, noting hair color. • 1-15 […] receiving no treatment, […], 9, 10 and 12 were grouped as E2. […] 20, 21, 22, 26 were grouped as E3, 23, 24, 25, 27 were grouped as E4. 28 and 29 were grouped as T2, receiving 100 ug/ml testosterone.
# After euthanized, all brains of all mice were surgically removed and placed in a solution of formaldehyde and weighed on a scale. The weights were recorded.
# [3] = test system: HD transgenic mice (HDexon 1 + 159-161 CAG repeat units); assay: Beam walking (raised beam) of treated HD transgenic mice; assay type: in vivo; details: for ability to transverse the ½ in beam in the allotted time / improvement over the course of the study (continued ability to cross the ½ in^2 beam after controls were unable): HD mice, 150 seconds allotted; for ability to transverse the ½ in beam in the allotted time: versus untreated control liter mates; for improvement over the course of the study (continued ability to cross the ½ in^2 beam after controls were unable): two weeks after control animals failed; for time after untreated liter mates were unable to perform the trained task, with retained cognitive decision making and motor function: HD transgenic mice, beam task
# Source text: 30 HD mice were obtained from the Jackson Laboratory, Bar Harbor, Me. The group consists of a 15 hemizygous female strain #2810 and 15 hemizygous males strain #2810 (containing the transgene HDexon 1+159-161 CAG repeat units). These mice were grouped as follows: • All mice received ear clips as identification, noting hair color. • 1-15 were males and 16-29 were females mouse #30 arrived dead. • Male mice: 1-4 were control animals receiving no treatment, 5,6,7,11 were grouped as E1 8, 9, 10 and 12 were grouped as E2. 13, 14 and 15 were grouped as T1, receiving 100 ug/ml testosterone weekly. • Female mice: 16-19 were control animals receiving no treatment. 20, 21, 22, 26 were grouped as E3, 23, 24, 25, 27 were grouped as E4. 28 and 29 were grouped as T2, receiving 100 ug/ml testosterone.
# Utilizing the raised beam, mice were assessed for their ability to transverse a graded series of narrow beams to reach a safety platform. The beams consisted of long strips of wood with a 12 mm or 5 mm square cross section. The beams were placed horizontally, 50 cm above each bench surface, with one end mounted on a narrow support and the other end attached to an enclosed box to which the animal could escape. Two inches of dense foam was placed under the test area to protect the animals from fall injury. Training took place in a 3 or 4 day period, where the mice were trained two to four times in a four day period using the 12 mm square beam. Once they were trained to walk the beam (i.e., traversing the 12 mm square beam in less than 20 seconds), they received two consecutive trails on each of the square beam and each of the round beams, in each case progressing from the widest to the narrowest beam. Mice were afforded 150 seconds to traverse each beam. The number of times the mice slipped off of the beam was recorded for each trial. The mean score was used for each trial.
# [4] = test system: mutant form of huntingtin; assay: In vitro estradiol binding study, overall conclusion; details: conclusion from Table 2
# Experimental: These pure proteins were then used in the following binding protocol. Oestradiol-6-(0-carboxymethyl)oximino-(2-[125I] iodohistamine was used as the estradiol source. Buffer B preferably comprises: 250 mM tris, 150 mM NaCl, and a Dextran Charcoal solution comprising 0.05% Dextran coated charcoal in buffer B (sigma Cat#6197). About 0.5 ml of buffer B was preferably used per reaction. A total of 5 ml of Buffer B was aliquoted into a glass borosilicate tube (Fisher Cat#14-961-26) and 10 μL of Oestradiol (1125) was added containing approximately 2,000,000 cpm. About 0.5 ml of this solution was then distributed into eight labeled glass tubes (cat #14-961-260). The entire tube #1's 500 μL was counted. Tube #2 through #8 were treated in the following manner:
# Tubes #2-#8 were incubated for 1 hour at room temperature, placed on ice for ten minutes, and 200 μL of the Dextran charcoal solution in buffer B was added. These tubes were then placed on ice ten minutes and then centrifuged 15 minutes at 2200 rpm in a Sorvall RC-3 refrigerated centrifuge with swinging bucket rotor (Sorvall HL-8) at 4 degrees. The entire 700 μL supernatant was removed and counted using Genesys multi-well gamma counter (Laboratories Technology, Inc.). The results are summarized below: […]
# [5] = Serum hormone level (ES/TT) in treated HD mice; details: subcutaneous injection as emulsion with Freund's incomplete adjuvant
# Experimental: Hormone tests of serum were performed to verify the blood levels of estradiol or testosterone. The mice (controls=no treatment) were tested against liter mates receiving either (E1 and E3 100 ug/ml weekly) or (E2 and E4 200 ug/ml injection weekly).
# Blood specimens for estradiol assay using Elisa methodology was obtained during the study.
# Stock solution of estradiol and testosterone were diluted with water and mixed with Freund's incomplete adjuvant. This was mixed continuously for 1 minute and either 100 ul (E1 and E3) or 200 ul (E2 and E4) were injected subcutaneously. […] Animals in the E1 and E3 groups were targeted to receive 100-300 pg/ml estrogen and groups E2 and E4 were targeted to receive 400-800 pg/ml of estrogen. Animals in T1 and T2 grouping were targeted to receive 100 pg/ml testosterone.
# [6] = female HD mice, group T1, 100 ul T dose weekly, target blood level 50-100 pg/ml
# [7] = female HD mice, group T1, 100 ul T dose weekly
# [8] = male HD mice, group T2, 100 ul T dose weekly, target blood level 50-100 pg/ml
# [9] = male HD mice, group T2, 100 ul T dose weekly
# [10] = female HD mice, group E1, 100 ul ES dose weekly, target blood level 100-300 pg/ml
# [11] = female HD mice, group E1, 100 ul ES dose weekly
# [12] = female HD mice, group E2, 200 ul ES dose weekly, target blood level 400-800 pg/ml
# [13] = female HD mice, group E2, 200 ul ES dose weekly
# [14] = male HD mice, group E3, 100 ul ES dose weekly, target blood level 100-300 pg/ml
# [15] = male HD mice, group E3, 100 ul ES dose weekly
# [16] = male HD mice, group E4, 200 ul ES dose weekly, target blood level 400-800 pg/ml
# [17] = male HD mice, group E4, 200 ul ES dose weekly
structure (smiles),measurement,setting,value
"CC12CCC(=O)C=C1CCC1[C@@H]2CCC2(C)[C@@H](OC(=O)CCC3CCCC3)CC[C@@H]12 (stereo partly drawn) [testosterone cypionate, androst-4-en-3-one,17-(3-cyclopentyl-1-oxopropoxy)-, (17β)-]",Last wt Week 12,[1]; [6],17.4 g and 14.5 g
same,Peak wt Weeks 8/9,[1]; [6],27.6 g and 21.6 g
same,Average % change,"[1]; female HD mice, group T1, 100 ul T dose weekly, controls 21.7%",34.8%
same,% change in weight,[1]; [7],−36.9% and −32.8%
same,Change in Grams,[1]; [7],-10.2 g and -7.1 g
same,Last wt Week 12,[1]; [8],17.1 g and 25.1 g and 19.0 g
same,Peak wt Weeks 8/9,[1]; [8],23.4 g and 28.0 g and 27.0 g
same,Average % change,"[1]; male HD mice, group T2, 100 ul T dose weekly, controls 27.2%",22.2%
same,% change,[1]; [9],−26.9% and −10.3% and −29.6%
same,Change in Grams,[1]; [9],-6.3 g and -2.9 g and -8.0 g
same,Brain weight at week 12,[2]; [7],0.31 g
same,Brain weight at week 12,[2]; [9],0.31 g and 0.37 g and 0.33 g
same,ability to transverse the ½ in beam in the allotted time,[3],significant improvement
same,improvement over the course of the study (continued ability to cross the ½ in^2 beam after controls were unable),[3],16.6%
same,"time after untreated liter mates were unable to perform the trained task, with retained cognitive decision making and motor function",[3],14 days
"C[C@]12CC[C@@H]3c4ccc(O)cc4CC[C@H]3[C@@H]1CC[C@@H]2O [estradiol, 1,3,5(10)-estratriene-3,17beta-diol]",affinity for mutant huntingtin,[4],an affinity for estradiol has been demonstrated
"CC12CCC3c4ccc(O)cc4CCC3C1CC[C@@H]2OC(=O)CCC1CCCC1 (stereo partly drawn) [estradiol cypionate, estradiol 17-cyclopentanepropionate]",Last wt Week 12,[1]; [10],21.7 g and 16.9 g and 18.9 g and 18.2 g
same,Peak wt Weeks 8/9,[1]; [10],24.0 g and 19.9 g and 21.2 g and 25.0 g
same,Average % change,"[1]; female HD mice, group E1, 100 ul ES dose weekly, controls 21.7%",15.5%
same,% change in weight,[1]; [11],−9.0% and −15.0% and −10.8% and −27.2%
same,Change in Grams,[1]; [11],−2.3 g (2×) and −3.0 g and −6.8 g
same,Last wt Week 12,[1]; [12],20.5 g and 17.6 g and 13.5 g and 20.7 g
same,Peak wt Weeks 8/9,[1]; [12],21.5 g and 21.8 g and 19.8 g and 22.5 g
same,Average % change,"[1]; female HD mice, group E2, 200 ul ES dose weekly, controls 21.7%",15.7%
same,% change in weight,[1]; [13],−4.6% and −19.2% and −31.0% and −8.0%
same,Change in Grams,[1]; [13],-1.0 g and -4.2 g and -6.3 g and -1.8 g
same,Last wt Week 12,[1]; [14],19.6 g and 22.6 g and 21.7 g and 23.5 g
same,Peak wt Weeks 8/9,[1]; [14],26.2 g and 26.7 g and 24.8 g and 26.4 g
same,Average % change,"[1]; male HD mice, group E3, 100 ul ES dose weekly, controls 27.2%",15.9%
same,% change,[1]; [15],−25.0% and −15.3% and −12.5% and −10.9%
same,Change in Grams,[1]; [15],-6.6 g and -4.1 g and -3.1 g and -2.9 g
same,Last wt Week 12,[1]; [16],22.9 g and 19.6 g and 20.2 g and 19.4 g
same,Peak wt Weeks 8/9,[1]; [16],26.2 g and 24.6 g and 23.7 g and 22.1 g
same,Average % change,"[1]; male HD mice, group E4, 200 ul ES dose weekly, controls 27.2%",14.9%
same,% change,[1]; [17],−12.5% and −20.3% and −14.7% and −12.2%
same,Change in Grams,[1]; [17],-3.3 g and -5.0 g and -3.5 g and -2.7 g
same,Brain weight at week 12,[2]; [11],0.33 g and 0.36 g and 0.34 g and 0.30 g
same,Brain weight at week 12,[2]; [13],0.33 g and 0.37 g (2×)
same,Brain weight at week 12,[2]; [15],0.37 g (2×) and 0.40 g (2×)
same,Brain weight at week 12,[2]; [17],0.39 g and 0.34 g and 0.35 g
same,increase in brain weight,"[2]; on average, lower level (100-300 Pg/ml) of estrogen treatment versus untreated",≤ 10%
same,ability to transverse the ½ in beam in the allotted time,[3],significant improvement; also recorded: able to complete the traversing of the beam in the allotted time; also recorded: significant increase in their ability to cross the beam within the time allotment
same,improvement over the course of the study (continued ability to cross the ½ in^2 beam after controls were unable),[3],16.6%
same,"time after untreated liter mates were unable to perform the trained task, with retained cognitive decision making and motor function",[3],14 days
same,release after injection,[5],continuous over six days
